This is an account of results in patent US20240109917A1 (ACTELION PHARMACEUTICALS LTD, priority 2020, published 2024).

Usually IC50 stands for the concentration that gives 50% inhibition.

Like-named read-outs stand apart in the source and are kept apart here.

For one test, the target named is VEGFR2, unphosphorylated (Homo sapiens (Human), UniProt P35968). Description: VEGFR ADP GLO Assay. It is filed as biochemical. A general note: ADP-Glo turns the ADP formed in a reaction into a luminescent signal.
The next test concerns the target PDGFRβ (Rattus norvegicus (Rat), UniProt Q05030). Description: PDGFRβ Cellular Assay (PDGFRb P-Y751 HTRF in A10 cells stimulated with PDGF-BB). It is filed as cell-based. In outline: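 Phospho-Y751 PDGFRβ was measured by HTRF in lysates of A10 rat cells. Cells received compound for 3 hours before PDGF-BB stimulation (100 ng/mL working stock).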
A general note: TR-FRET usually uses a lanthanide donor and a delayed reading to cut background.

In test [1] the target is Tb-labeled inactive PDGFRβ (Homo sapiens (Human), UniProt P09619). Description: PDGFRβ LanthaScreen Assay. Format: binding. The settings on record: read-out: PDGFR Lantha IC50.
Chain of Tb-labeled inactive PDGFRβ (P09619 33-1106): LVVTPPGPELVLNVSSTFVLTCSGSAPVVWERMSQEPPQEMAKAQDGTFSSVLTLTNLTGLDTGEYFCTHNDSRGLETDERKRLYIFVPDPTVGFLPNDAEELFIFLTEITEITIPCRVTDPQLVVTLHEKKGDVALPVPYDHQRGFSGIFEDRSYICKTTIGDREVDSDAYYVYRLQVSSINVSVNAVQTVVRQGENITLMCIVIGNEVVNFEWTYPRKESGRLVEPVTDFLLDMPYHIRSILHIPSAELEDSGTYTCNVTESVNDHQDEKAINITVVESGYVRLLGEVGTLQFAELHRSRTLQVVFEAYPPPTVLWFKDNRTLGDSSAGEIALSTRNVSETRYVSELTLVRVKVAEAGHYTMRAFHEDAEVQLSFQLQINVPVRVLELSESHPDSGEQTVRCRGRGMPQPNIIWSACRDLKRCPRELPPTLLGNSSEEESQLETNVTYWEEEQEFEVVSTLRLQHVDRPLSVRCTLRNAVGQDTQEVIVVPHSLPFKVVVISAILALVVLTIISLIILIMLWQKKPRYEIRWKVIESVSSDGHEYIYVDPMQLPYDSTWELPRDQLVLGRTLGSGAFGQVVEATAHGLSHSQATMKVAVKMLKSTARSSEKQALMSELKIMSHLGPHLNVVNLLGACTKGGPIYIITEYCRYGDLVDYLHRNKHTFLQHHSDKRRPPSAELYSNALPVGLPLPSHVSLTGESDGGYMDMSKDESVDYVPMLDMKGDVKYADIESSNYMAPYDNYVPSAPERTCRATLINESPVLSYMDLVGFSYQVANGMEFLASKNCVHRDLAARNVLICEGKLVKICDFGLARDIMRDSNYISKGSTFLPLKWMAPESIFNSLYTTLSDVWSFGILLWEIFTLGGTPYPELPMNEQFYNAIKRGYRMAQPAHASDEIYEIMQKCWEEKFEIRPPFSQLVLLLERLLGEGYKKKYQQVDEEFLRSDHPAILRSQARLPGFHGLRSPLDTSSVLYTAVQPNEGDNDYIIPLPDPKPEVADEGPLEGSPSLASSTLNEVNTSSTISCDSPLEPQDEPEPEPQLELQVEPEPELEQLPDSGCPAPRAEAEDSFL

Chain of PDGFRβ (Q05030 32-1097): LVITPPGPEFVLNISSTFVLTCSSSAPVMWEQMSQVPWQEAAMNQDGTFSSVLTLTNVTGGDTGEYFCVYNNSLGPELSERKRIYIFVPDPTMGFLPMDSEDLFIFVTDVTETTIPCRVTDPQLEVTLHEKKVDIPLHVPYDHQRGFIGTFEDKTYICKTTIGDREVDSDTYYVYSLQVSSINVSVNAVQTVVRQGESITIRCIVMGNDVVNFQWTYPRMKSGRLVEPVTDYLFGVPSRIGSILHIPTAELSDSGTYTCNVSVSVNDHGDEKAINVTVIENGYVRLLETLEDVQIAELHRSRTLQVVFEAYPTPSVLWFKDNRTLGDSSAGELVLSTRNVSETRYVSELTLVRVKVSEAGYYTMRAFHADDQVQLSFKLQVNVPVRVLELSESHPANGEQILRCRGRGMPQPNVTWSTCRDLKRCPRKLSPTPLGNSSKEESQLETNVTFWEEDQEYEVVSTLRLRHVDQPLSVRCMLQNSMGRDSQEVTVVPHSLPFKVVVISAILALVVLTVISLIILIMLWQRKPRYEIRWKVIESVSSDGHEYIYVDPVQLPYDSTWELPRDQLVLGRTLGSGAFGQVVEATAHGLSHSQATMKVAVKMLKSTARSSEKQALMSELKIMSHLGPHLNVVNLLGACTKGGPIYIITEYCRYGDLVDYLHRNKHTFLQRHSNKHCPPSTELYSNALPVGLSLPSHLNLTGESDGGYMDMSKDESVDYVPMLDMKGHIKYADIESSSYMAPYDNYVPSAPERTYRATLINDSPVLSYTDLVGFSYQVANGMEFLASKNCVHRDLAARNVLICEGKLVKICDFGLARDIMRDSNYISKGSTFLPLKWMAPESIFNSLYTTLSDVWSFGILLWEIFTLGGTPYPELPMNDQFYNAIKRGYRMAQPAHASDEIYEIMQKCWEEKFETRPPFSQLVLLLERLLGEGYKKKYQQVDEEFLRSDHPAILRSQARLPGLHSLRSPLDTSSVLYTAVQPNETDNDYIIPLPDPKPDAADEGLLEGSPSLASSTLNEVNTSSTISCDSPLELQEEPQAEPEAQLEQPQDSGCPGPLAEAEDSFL
Chain of VEGFR2, unphosphorylated (P35968 20-1356): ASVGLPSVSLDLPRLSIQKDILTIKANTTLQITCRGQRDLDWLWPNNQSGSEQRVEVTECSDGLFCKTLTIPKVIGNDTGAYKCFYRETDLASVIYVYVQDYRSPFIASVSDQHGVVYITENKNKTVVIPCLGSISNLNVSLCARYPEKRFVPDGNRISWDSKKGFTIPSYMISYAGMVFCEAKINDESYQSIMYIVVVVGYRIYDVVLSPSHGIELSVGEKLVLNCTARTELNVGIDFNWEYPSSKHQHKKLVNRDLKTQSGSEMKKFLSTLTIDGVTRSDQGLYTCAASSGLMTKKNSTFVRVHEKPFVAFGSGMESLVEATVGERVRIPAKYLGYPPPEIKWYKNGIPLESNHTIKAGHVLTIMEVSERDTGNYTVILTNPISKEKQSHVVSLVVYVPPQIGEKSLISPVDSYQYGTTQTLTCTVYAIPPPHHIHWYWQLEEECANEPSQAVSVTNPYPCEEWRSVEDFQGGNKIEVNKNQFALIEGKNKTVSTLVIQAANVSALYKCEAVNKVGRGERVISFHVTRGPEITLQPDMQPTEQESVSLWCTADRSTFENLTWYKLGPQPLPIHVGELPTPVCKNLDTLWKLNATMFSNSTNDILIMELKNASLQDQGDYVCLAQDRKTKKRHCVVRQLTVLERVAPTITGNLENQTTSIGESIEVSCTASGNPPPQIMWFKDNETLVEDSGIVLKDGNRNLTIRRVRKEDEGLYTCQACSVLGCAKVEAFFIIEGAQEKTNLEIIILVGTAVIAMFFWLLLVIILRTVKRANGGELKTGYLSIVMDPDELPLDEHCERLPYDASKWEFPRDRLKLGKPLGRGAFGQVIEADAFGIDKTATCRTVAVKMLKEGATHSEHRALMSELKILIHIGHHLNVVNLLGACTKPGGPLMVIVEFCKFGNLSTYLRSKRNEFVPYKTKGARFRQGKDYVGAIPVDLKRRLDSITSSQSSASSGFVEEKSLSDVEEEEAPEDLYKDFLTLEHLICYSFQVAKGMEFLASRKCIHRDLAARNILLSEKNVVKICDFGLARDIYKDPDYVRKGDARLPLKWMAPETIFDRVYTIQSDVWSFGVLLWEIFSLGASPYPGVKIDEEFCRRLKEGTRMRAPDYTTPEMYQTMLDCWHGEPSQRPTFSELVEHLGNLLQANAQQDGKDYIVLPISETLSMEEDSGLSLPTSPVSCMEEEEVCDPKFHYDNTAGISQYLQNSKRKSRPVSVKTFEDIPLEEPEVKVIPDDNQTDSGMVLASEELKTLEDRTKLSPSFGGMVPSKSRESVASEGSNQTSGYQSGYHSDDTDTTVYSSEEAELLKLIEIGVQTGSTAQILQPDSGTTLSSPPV

On to `Cc1ncc(NC(=O)CCN2CCCC2(C)C)cc1NC(=O)c1cnn2cc(-c3ccn(C)n3)sc12` [Example 12, N-(5-(3-(2,2-dimethylpyrrolidin-1-yl)propanamido)-2-methyl-pyridin-3-yl)-2-(1-methyl-1H-pyrazol-3-yl)pyrazolo[5,1-b]thiazole-7-carboxamide], for which the IC50 at VEGFR2, unphosphorylated is over 7500 nM; on PDGFRβ (read-out: PDGFR Cellular IC50) it was 7.7 nM; in test [1], 3.3 nM.

`Cc1ncc(NC(=O)CN2CCCC2(C)C)cc1NC(=O)c1cnn2cc(-c3cnn(C)c3)sc12` [Example 13, N-(5-(2-(2,2-dimethylpyrrolidin-1-yl)acetamido)-2-methylpyridin-3-yl)-2-(1-methyl-1H-pyrazol-4-yl)pyrazolo[5,1-b]thiazole-7-carboxamide]: the IC50 is over 7500 nM on VEGFR2, unphosphorylated; 3.3 nM at PDGFRβ (read-out: PDGFR Cellular IC50); 5 nM in test [1].

`Cc1ncc(NC(=O)CN2CCC(F)(F)CC2)cc1NC(=O)c1cnn2cc(-c3cnn(C)c3)sc12` [Example 14, N-(5-(2-(4,4-difluoropiperidin-1-yl)acetamido)-2-methylpyridin-3-yl)-2-(1-methyl-1H-pyrazol-4-yl)pyrazolo[5,1-b]thiazole-7-carboxamide]: the IC50 against VEGFR2, unphosphorylated was over 7500 nM; on PDGFRβ (read-out: PDGFR Cellular IC50), 4.4 nM; in test [1], 2.7 nM.

For the molecule `Cc1ncc(NC(=O)CN(C)C2CCOCC2)cc1NC(=O)c1cnn2cc(-c3cnn(C)c3)sc12` [Example 15, 2-(1-methyl-1H-pyrazol-4-yl)-N-(2-methyl-5-(2-(methyl(tetrahydro-2H-pyran-4-yl)amino)acetamido)pyridin-3-yl)pyrazolo[5,1-b]thiazole-7-carboxamide], the half-maximal inhibitory concentration (IC50) on VEGFR2, unphosphorylated is over 7500 nM; at PDGFRβ (read-out: PDGFR Cellular IC50), 15.7 nM; in test [1], 4.7 nM.

Regarding `Cc1ncc(NC(=O)CN2CCCC23CC3)cc1NC(=O)c1cnn2cc(-c3cnn(C)c3)sc12` [Example 16, N-(5-(2-(4-azaspiro[2.4]heptan-4-yl)acetamido)-2-methylpyridin-3-yl)-2-(1-methyl-1H-pyrazol-4-yl)pyrazolo[5,1-b]thiazole-7-carboxamide], the IC50 was over 7500 nM at VEGFR2, unphosphorylated; 4.1 nM at PDGFRβ (read-out: PDGFR Cellular IC50); 5.1 nM in test [1].

As for `Cc1ncc(NC(=O)CN2CCc3cnn(C)c3C2)cc1NC(=O)c1cnn2cc(-c3cnn(C)c3)sc12` [Example 17, 2-(1-methyl-1H-pyrazol-4-yl)-N-(2-methyl-5-(2-(1-methyl-4,5-dihydro-1H-pyrazolo[3,4-c]pyridin-6 (7H)-yl)acetamido)pyridin-3-yl)pyrazolo[5,1-b]thiazole-7-carboxamide], the IC50 on VEGFR2, unphosphorylated is over 7500 nM; at PDGFRβ (read-out: PDGFR Cellular IC50) it was 69.5 nM; in test [1], 6 nM.

Take `Cc1ncc(NC(=O)CN2CCC3(COC3)C2)cc1NC(=O)c1cnn2cc(-c3cnn(C)c3)sc12` [Example 18, N-(5-(2-(2-oxa-6-azaspiro[3.4]octan-6-yl)acetamido)-2-methylpyridin-3-yl)-2-(1-methyl-1H-pyrazol-4-yl)pyrazolo[5,1-b]thiazole-7-carboxamide]: the IC50 against VEGFR2, unphosphorylated was over 7500 nM; at PDGFRβ (read-out: PDGFR Cellular IC50), 49.8 nM; in test [1], 9.5 nM.

Take `Cc1ncc(C(=O)NCCN2CC3CCC2CC3)cc1NC(=O)c1cnn2cc(-c3cnn(C(F)F)c3)sc12` [Example 180, N-(5-((2-(2-azabicyclo[2.2.2]octan-2-yl)ethyl)carbamoyl)-2-methylpyridin-3-yl)-2-(1-(difluoromethyl)-1H-pyrazol-4-yl)pyrazolo[5,1-b]thiazole-7-carboxamide]: the IC50 on VEGFR2, unphosphorylated was over 7500 nM; at PDGFRβ (PDGFR Cellular IC50) it was 38.4 nM; in test [1], 6.1 nM.

Regarding `Cc1ncc(C(=O)NCCN2CC3CCC2CC3)cc1NC(=O)c1cnn2cc(-c3cnn(C4CC4)c3)sc12` [Example 181, N-(5-((2-(2-azabicyclo[2.2.2]octan-2-yl)ethyl)carbamoyl)-2-methylpyridin-3-yl)-2-(1-cyclopropyl-1H-pyrazol-4-yl)pyrazolo[5,1-b]thiazole-7-carboxamide], the IC50 against VEGFR2, unphosphorylated is over 7500 nM; on PDGFRβ (read-out: PDGFR Cellular IC50) it was 16.1 nM; in test [1], 2.3 nM.

As to `Cc1cc(C(=O)NCCN2CCCC2(C)C)sc1NC(=O)c1cnn2cc(-c3cnn(C)c3)sc12` [Example 182, N-(5-((2-(2,2-dimethylpyrrolidin-1-yl)ethyl)carbamoyl)-3-methylthiophen-2-yl)-2-(1-methyl-1H-pyrazol-4-yl)pyrazolo[5,1-b]thiazole-7-carboxamide], the IC50 was over 7500 nM at VEGFR2, unphosphorylated; 1680 nM at PDGFRβ (read-out: PDGFR Cellular IC50); 1980 nM in test [1].

As to `Cc1cc(C(=O)NCCN2CCC(C)(C)CC2)sc1NC(=O)c1cnn2cc(-c3cnn(C)c3)sc12` [Example 183, N-(5-((2-(4,4-dimethylpiperidin-1-yl)ethyl)carbamoyl)-3-methylthiophen-2-yl)-2-(1-methyl-1H-pyrazol-4-yl)pyrazolo[5,1-b]thiazole-7-carboxamide], the concentration for half-maximal inhibition (IC50) at VEGFR2, unphosphorylated was over 7500 nM; at PDGFRβ (read-out: PDGFR Cellular IC50), 178 nM; in test [1] it was 652 nM.

As to `Cc1cc(C(=O)NCCN2CCCC2(C)C)sc1NC(=O)c1cnn2cc(-c3ccc(N)nc3)sc12` [Example 184, 2-(6-aminopyridin-3-yl)-N-(5-((2-(2,2-dimethylpyrrolidin-1-yl)ethyl)carbamoyl)-3-methylthiophen-2-yl)pyrazolo[5,1-b]thiazole-7-carboxamide], the half-inhibitory concentration (IC50) is over 7500 nM against VEGFR2, unphosphorylated; 1630 nM at PDGFRβ (read-out: PDGFR Cellular IC50); 829 nM in test [1].

Regarding `Cc1cc(C(=O)NCCN2CCCC2(C)C)sc1NC(=O)c1cnn2cc(-c3cncnc3)sc12` [Example 185, N-(5-((2-(2,2-dimethylpyrrolidin-1-yl)ethyl)carbamoyl)-3-methylthiophen-2-yl)-2-(pyrimidin-5-yl)pyrazolo[5,1-b]thiazole-7-carboxamide], the IC50 at VEGFR2, unphosphorylated was over 7500 nM; on PDGFRβ (read-out: PDGFR Cellular IC50), 42.6 nM; in test [1] it was over 3000 nM.

On to `Cc1cc(C(=O)NCCN2CCCC2(C)C)sc1NC(=O)c1cnn2cc(-c3cnn(C)n3)sc12` [Example 186, N-(5-((2-(2,2-dimethylpyrrolidin-1-yl)ethyl)carbamoyl)-3-methylthiophen-2-yl)-2-(2-methyl-2H-1,2,3-triazol-4-yl)pyrazolo[5,1-b]thiazole-7-carboxamide], for which the half-inhibitory concentration (IC50) on VEGFR2, unphosphorylated is over 7500 nM; on PDGFRβ (read-out: PDGFR Cellular IC50) it was 593 nM; in test [1], 2250 nM.

As to `Cc1cc(C(=O)NCCN2CCCC2(C)C)sc1NC(=O)c1cnn2cc(-c3ccncc3)sc12` [Example 187, N-(5-((2-(2,2-dimethylpyrrolidin-1-yl)ethyl)carbamoyl)-3-methylthiophen-2-yl)-2-(pyridin-4-yl)pyrazolo[5,1-b]thiazole-7-carboxamide], the concentration for half-maximal inhibition (IC50) against VEGFR2, unphosphorylated was over 7500 nM; at PDGFRβ (read-out: PDGFR Cellular IC50) it was 1020 nM; in test [1], 1190 nM.

Turning to `Cc1cc(C(=O)NCCN2CCCC2(C)C)sc1NC(=O)c1cnn2cc(-c3ccn(C)n3)sc12` [Example 188, N-(5-((2-(2,2-dimethylpyrrolidin-1-yl)ethyl)carbamoyl)-3-methylthiophen-2-yl)-2-(1-methyl-1H-pyrazol-3-yl)pyrazolo[5,1-b]thiazole-7-carboxamide], the IC50 was over 7500 nM on VEGFR2, unphosphorylated; 347 nM on PDGFRβ (read-out: PDGFR Cellular IC50); 683 nM in test [1].

As for `Cc1cc(C(=O)NCCN2CCC(C)(C)C2)sc1NC(=O)c1cnn2cc(-c3cnn(C)c3)sc12` [Example 189, N-(5-((2-(3,3-dimethylpyrrolidin-1-yl)ethyl)carbamoyl)-3-methylthiophen-2-yl)-2-(1-methyl-1H-pyrazol-4-yl)pyrazolo[5,1-b]thiazole-7-carboxamide], the IC50 against VEGFR2, unphosphorylated was over 7500 nM; at PDGFRβ (read-out: PDGFR Cellular IC50) it was 72.3 nM; in test [1], 319 nM.

Regarding `Cc1cc(C(=O)NCCN(C)C2CCCC2)sc1NC(=O)c1cnn2cc(-c3cnn(C)c3)sc12` [Example 190, N-(5-((2-(cyclopentyl(methyl)amino)ethyl)carbamoyl)-3-methylthiophen-2-yl)-2-(1-methyl-1H-pyrazol-4-yl)pyrazolo[5,1-b]thiazole-7-carboxamide], the IC50 on VEGFR2, unphosphorylated was over 7500 nM; against PDGFRβ (PDGFR Cellular IC50), 147 nM; in test [1], 398 nM.

As to `Cc1cc(C(=O)NCCN2CCC(O)CC2)sc1NC(=O)c1cnn2cc(-c3cnn(C)c3)sc12` [Example 191, N-(5-((2-(4-hydroxypiperidin-1-yl)ethyl)carbamoyl)-3-methylthiophen-2-yl)-2-(1-methyl-1H-pyrazol-4-yl)pyrazolo[5,1-b]thiazole-7-carboxamide], the IC50 is over 7500 nM against VEGFR2, unphosphorylated; over 3000 nM at PDGFRβ (read-out: PDGFR Cellular IC50); over 3000 nM in test [1].

Consider `Cc1cc(C(=O)NCCN(C)C2CCOCC2)sc1NC(=O)c1cnn2cc(-c3cnn(C)c3)sc12` [Example 192, 2-(1-methyl-1H-pyrazol-4-yl)-N-(3-methyl-5-((2-(methyl(tetrahydro-2H-pyran-4-yl)amino)ethyl)carbamoyl)thiophen-2-yl)pyrazolo[5,1-b]thiazole-7-carboxamide], for which the IC50 against VEGFR2, unphosphorylated was over 7500 nM; on PDGFRβ (read-out: PDGFR Cellular IC50), over 3000 nM; in test [1], 1380 nM.

On to `Cc1cc(C(=O)NCCN2CCC(CO)CC2)sc1NC(=O)c1cnn2cc(-c3cnn(C)c3)sc12` [Example 193, N-(5-((2-(4-(hydroxymethyl)piperidin-1-yl)ethyl)carbamoyl)-3-methylthiophen-2-yl)-2-(1-methyl-1H-pyrazol-4-yl)pyrazolo[5,1-b]thiazole-7-carboxamide], for which the half-maximal inhibitory concentration (IC50) on VEGFR2, unphosphorylated is over 7500 nM; on PDGFRβ (read-out: PDGFR Cellular IC50), over 3000 nM; in test [1], over 3000 nM.

Consider `Cc1cc(C(=O)NCCN2CC[C@@H](O)C2)sc1NC(=O)c1cnn2cc(-c3cnn(C)c3)sc12` [Example 194, (R)—N-(5-((2-(3-hydroxypyrrolidin-1-yl)ethyl)carbamoyl)-3-methylthiophen-2-yl)-2-(1-methyl-1H-pyrazol-4-yl)pyrazolo[5,1-b]thiazole-7-carboxamide], for which the concentration for half-maximal inhibition (IC50) at VEGFR2, unphosphorylated is 2040 nM; on PDGFRβ (read-out: PDGFR Cellular IC50), over 3000 nM; in test [1], over 3000 nM.
